Experimental data reported in ChEMBL document CHEMBL1201862, “PubChem BioAssay data set” (2004).
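Protocol summary: plate cells (96-well), add compound at 5 concentrations, incubate 48 h, interpolate endpoints linearly. Here, GI50 denotes the concentration required for 50% inhibition of growth.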 Activity calls are given as the source filed them. Cut-off read from the data, not from the text of the source: active = GI50 up to about 1.1 µM and inactive = higher.

Columns and labels:
Test in all cases: NCI anticancer screen, dose series, 48 h
RXF 393 = system: RXF 393
HT-29 = system: HT-29
NCI-H522 = system: NCI-H522
OVCAR-8 = system: OVCAR-8
PC-3 = system: PC-3
MOLT-4 = system: MOLT-4
UACC-257 = system: UACC-257
SK-MEL-2 = system: SK-MEL-2
Hs-578T = system: Hs-578T
HOP-62 = system: HOP-62
ACHN = system: ACHN
SNB-19 = system: SNB-19
A498 = system: A498
Malme-3M = system: Malme-3M
SN12C = system: SN12C
CCRF-CEM = system: CCRF-CEM
LOX IMVI = system: LOX IMVI
SK-MEL-5 = system: SK-MEL-5
IGROV-1 = system: IGROV-1
UO-31 = system: UO-31

Structure (SMILES)	GI50 (RXF 393)	GI50 (HT-29)	GI50 (NCI-H522)	GI50 (OVCAR-8)	GI50 (PC-3)	GI50 (MOLT-4)	GI50 (UACC-257)	GI50 (SK-MEL-2)	GI50 (Hs-578T)	GI50 (HOP-62)	GI50 (ACHN)	GI50 (SNB-19)	GI50 (A498)	GI50 (Malme-3M)	GI50 (SN12C)	GI50 (CCRF-CEM)	GI50 (LOX IMVI)	GI50 (SK-MEL-5)	GI50 (IGROV-1)	GI50 (UO-31)
O=C1C(/C=N/CCc2c[nH]c3ccccc23)C(C(F)(F)F)=NN1c1nc2ccccc2s1 (stereo not given)	15 µM (inactive)	27.5 µM (inactive)	19.5 µM (inactive)	29.7 µM (inactive)	31 µM (inactive)	21.1 µM (inactive)	18 µM (inactive)	28.8 µM (inactive)	44.1 µM (inactive)	20.4 µM (inactive)	27.4 µM (inactive)	36.5 µM (inactive)	20.3 µM (inactive)	29.6 µM (inactive)	37.6 µM (inactive)	19.5 µM (inactive)	27.9 µM (inactive)	18.3 µM (inactive)	24.4 µM (inactive)	31.3 µM (inactive)
CC(C)(C)c1cc(C(=O)C2Cc3ccccc3C(=O)O2)cc(C(C)(C)C)c1O (stereo not given)	12.1 µM (inactive)	14.4 µM (inactive)	11.6 µM (inactive)	10.4 µM (inactive)	11.7 µM (inactive)	8.55 µM (inactive)	11.6 µM (inactive)	10.9 µM (inactive)	29.3 µM (inactive)	13.7 µM (inactive)	17.1 µM (inactive)	11.8 µM (inactive)	13.5 µM (inactive)	14.6 µM (inactive)	11.5 µM (inactive)	5.01 µM (inactive)	11.9 µM (inactive)	12.6 µM (inactive)	14.5 µM (inactive)	11.2 µM (inactive)
O=C1c2cc(Cl)ccc2N=C(NCCCl)C2CSCN12 (stereo not given)	> 100 µM (inactive)	> 100 µM (inactive)	24.3 µM (inactive)	> 100 µM (inactive)	> 100 µM (inactive)	> 100 µM (inactive)	> 100 µM (inactive)	> 100 µM (inactive)	86.5 µM (inactive)	> 100 µM (inactive)	> 100 µM (inactive)	> 100 µM (inactive)	> 100 µM (inactive)	> 100 µM (inactive)	> 100 µM (inactive)	78.7 µM (inactive)	> 100 µM (inactive)	> 100 µM (inactive)	> 100 µM (inactive)	> 100 µM (inactive)
Cc1cc(/N=C/c2ccc(N(C)C)cc2)n(-c2ccccc2)n1	44.4 µM (inactive)	12.6 µM (inactive)	30.1 µM (inactive)	78 µM (inactive)	48.4 µM (inactive)	42.6 µM (inactive)	91.4 µM (inactive)	> 100 µM (inactive)	29.9 µM (inactive)	17 µM (inactive)	> 100 µM (inactive)	61.2 µM (inactive)	26.1 µM (inactive)	> 100 µM (inactive)	28.4 µM (inactive)	22.2 µM (inactive)	48.3 µM (inactive)	40.2 µM (inactive)	50.6 µM (inactive)	> 100 µM (inactive)
OCC(O)C(O)C(O)C(O)c1nc2cc(Cl)ccc2[nH]1 (stereo not given)	> 100 µM (inactive)	> 100 µM (inactive)	> 100 µM (inactive)	> 100 µM (inactive)	> 100 µM (inactive)	> 100 µM (inactive)	> 100 µM (inactive)	> 100 µM (inactive)	> 100 µM (inactive)	90.4 µM (inactive)	> 100 µM (inactive)	> 100 µM (inactive)	> 100 µM (inactive)	> 100 µM (inactive)	> 100 µM (inactive)	> 100 µM (inactive)	> 100 µM (inactive)	> 100 µM (inactive)	> 100 µM (inactive)	> 100 µM (inactive)
O=C(NCCCl)NCc1ccccc1	> 100 µM (inactive)	> 100 µM (inactive)	> 100 µM (inactive)	> 100 µM (inactive)	> 100 µM (inactive)	> 100 µM (inactive)	> 100 µM (inactive)	> 100 µM (inactive)	> 100 µM (inactive)	> 100 µM (inactive)	> 100 µM (inactive)	> 100 µM (inactive)	> 100 µM (inactive)	> 100 µM (inactive)	> 100 µM (inactive)	> 100 µM (inactive)	> 100 µM (inactive)	> 100 µM (inactive)	> 100 µM (inactive)	> 100 µM (inactive)
NS(=O)(=O)c1ccc(Nc2c3ccccc3nc3c(C(=O)NC(CO)(CO)CO)cccc23)cc1	0.185 µM (active)	0.184 µM (active)	0.15 µM (active)	0.181 µM (active)	0.226 µM (active)	0.0468 µM (active)	0.181 µM (active)	0.21 µM (active)	0.154 µM (active)	0.178 µM (active)	0.19 µM (active)	0.217 µM (active)	0.224 µM (active)	0.135 µM (active)	0.199 µM (active)	0.0557 µM (active)	0.132 µM (active)	0.107 µM (active)	0.136 µM (active)	0.171 µM (active)
